From patent US20210253538A1, “AMINOPYRAZINES AND RELATED COMPOUNDS USEFUL AS MITOCHONDRIAL UNCOUPLERS” (VIRGINIA TECH INTELLECTUAL PROPERTIES, INC., priority 2018, published 2021)

How the values were obtained:
[1] = patients consuming ~300 mg/d, over several months, without changes in food intake; cited from earlier work
[2] = test system: whole cells (NMuLi, C2C12, and L6 cells, isolated cardiomyocytes, human primary fibroblasts); test: Oxygen consumption rate (OCR) in whole cells, Seahorse XF-24 Flux Analyzer; format: cell-based
Procedure: Biological activities of the compounds synthesized is determined by determining increase in oxygen consumption rate (OCR).
Oxygen consumption rate (OCR) in whole cells is measured in general accordance with the method of Kenwood B M et al. (Mol. Met. (2014) 3: 114-123).
OCR is measured using a Seahorse XF-24 Flux Analyzer (Seahorse Biosciences, North Billerica, Mass.). NMuLi, C2C12, and L6 cells are seeded in a Seahorse 24-well tissue culture plate at a density of 3.5×10^4 cells/well, isolated cardiomyocytes at a density of 4×10^4 cells/well, and human primary fibroblasts at a density of 1.1×10^4 cells/well. The cells are then allowed to adhere for 24 h. Prior to the assay, the media is changed to unbuffered DMEM containing pyruvate and glutamine (Gibco #12800-017, pH=7.4 at 37° C.) and the cells are equilibrated for 30 mins at 37° C. Compounds are injected during the assay and OCR is measured using 2 min measurement periods.
2-3 wells are used per condition and averaged over three plates (n=6-9). Statistical significance is determined by two-way ANOVA with Bonferroni's posttest.

| SMILES | Average weight shed [1] [pounds per week] | increase in oxygen consumption rate (OCR) [2] |
| --- | --- | --- |
| O=[N+]([O-])c1ccc(O)c([N+](=O)[O-])c1 [DNP, 2,4-dinitrophenol] | 1.5 |  |
| FC(F)(F)Oc1ccc(Nc2ncc(C(F)(F)F)nc2OCc2ccccc2)cc1 [Compound 3-18, 3-(Benzyloxy)-N-(4-(Trifluoromethoxy)Phenyl)-5-(Trifluoromethyl)Pyrazin-2-Amine] |  | observable activity |
| Oc1nc(-c2ccc(C(F)(F)F)cc2)cnc1Nc1ccc(OC(F)(F)F)cc1 [Compound 3-26, 3-((4-(Trifluoromethoxy)Phenyl)Amino)-6-(4-(Trifluoromethyl)Phenyl) Pyrazin-2-Ol] |  | observable activity |
| Oc1nc(C(F)(F)F)cnc1Nc1ccc(OC(F)(F)F)cc1 [Compound 3-19, 3-((4-(Trifluoromethoxy)Phenyl)Amino)-6-(Trifluoromethyl)Pyrazin-2-Ol] |  | observable activity |
